Measurements from publication doi:10.1101/2024.08.19.608619, “Discovery of potent SARS-CoV-2 nsp3 macrodomain inhibitors uncovers lack of translation to cellular antiviral response” (bioRxiv, 2024).
Converted amounts (≈) assume the structure as drawn. “And” between values parts separate entries of the source, which are not always exact repeats. Equal entries are not always repeated. Where two headings read alike, the source gives them in different places.

Columns and labels:
[1] = Permeability Papp (AB) MDR1/MDCKII; settings: for papp_a_to_b_mean / papp_b_to_a_mean / perc_recovery_a_to_b_mean / perc_recovery_b_to_a_mean: In vitro MDR1-MDCKII permeability; for papp_b_to_a_mean: B to A; for perc_recovery_a_to_b_mean / perc_recovery_a_to_b_inhibitor_mean: recovery A to B; for perc_recovery_b_to_a_mean / perc_recovery_b_to_a_inhibitor_mean: recovery B to A
[2] = molecular target: JAK2(h) (Homo sapiens, UniProt O60674); assay: biochemical; parameters: In vitro kinase panel profiling, per cent remaining kinase activity at 10 uM; settings: atp_concentration=45, read-out: % of control remaining
Source text: (§1) We derisk potential for off-target activity by profiling the compound in a CEREP panel, a standard secondary pharmacology assessment, as well as a kinase panel to derisk a potential hinge-binding motif in our leads, and a PARP panel to derisk activity against human […]. Reassuringly, the compounds are selective, with the only off-targets being moderate human CHRM2 and KOR receptors activity associated with ASAP-0011198.

[3] = molecular target: T1, Pim-1(h) (Homo sapiens, UniProt P11309); assay: biochemical; parameters: In vitro kinase panel profiling, per cent remaining kinase activity at 10 uM; settings: atp_concentration=90, read-out: % of control remaining
T1 construct: gene PIM1
T1 sequence (P11309 whole entry): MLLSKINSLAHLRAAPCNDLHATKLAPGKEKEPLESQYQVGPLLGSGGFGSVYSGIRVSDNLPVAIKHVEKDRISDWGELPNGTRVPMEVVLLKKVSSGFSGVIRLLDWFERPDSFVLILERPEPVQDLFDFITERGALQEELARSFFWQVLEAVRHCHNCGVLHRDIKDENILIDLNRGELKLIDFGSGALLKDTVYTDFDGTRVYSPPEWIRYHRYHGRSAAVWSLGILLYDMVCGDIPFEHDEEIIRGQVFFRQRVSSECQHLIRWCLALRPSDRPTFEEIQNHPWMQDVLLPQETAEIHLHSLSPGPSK
Source text: as §1

[4] = molecular target: KDR(h) (Homo sapiens, UniProt P35968); assay: biochemical; parameters: In vitro kinase panel profiling, per cent remaining kinase activity at 10 uM; settings: atp_concentration=90, read-out: % of control remaining
Chain of KDR(h) (P35968 whole entry): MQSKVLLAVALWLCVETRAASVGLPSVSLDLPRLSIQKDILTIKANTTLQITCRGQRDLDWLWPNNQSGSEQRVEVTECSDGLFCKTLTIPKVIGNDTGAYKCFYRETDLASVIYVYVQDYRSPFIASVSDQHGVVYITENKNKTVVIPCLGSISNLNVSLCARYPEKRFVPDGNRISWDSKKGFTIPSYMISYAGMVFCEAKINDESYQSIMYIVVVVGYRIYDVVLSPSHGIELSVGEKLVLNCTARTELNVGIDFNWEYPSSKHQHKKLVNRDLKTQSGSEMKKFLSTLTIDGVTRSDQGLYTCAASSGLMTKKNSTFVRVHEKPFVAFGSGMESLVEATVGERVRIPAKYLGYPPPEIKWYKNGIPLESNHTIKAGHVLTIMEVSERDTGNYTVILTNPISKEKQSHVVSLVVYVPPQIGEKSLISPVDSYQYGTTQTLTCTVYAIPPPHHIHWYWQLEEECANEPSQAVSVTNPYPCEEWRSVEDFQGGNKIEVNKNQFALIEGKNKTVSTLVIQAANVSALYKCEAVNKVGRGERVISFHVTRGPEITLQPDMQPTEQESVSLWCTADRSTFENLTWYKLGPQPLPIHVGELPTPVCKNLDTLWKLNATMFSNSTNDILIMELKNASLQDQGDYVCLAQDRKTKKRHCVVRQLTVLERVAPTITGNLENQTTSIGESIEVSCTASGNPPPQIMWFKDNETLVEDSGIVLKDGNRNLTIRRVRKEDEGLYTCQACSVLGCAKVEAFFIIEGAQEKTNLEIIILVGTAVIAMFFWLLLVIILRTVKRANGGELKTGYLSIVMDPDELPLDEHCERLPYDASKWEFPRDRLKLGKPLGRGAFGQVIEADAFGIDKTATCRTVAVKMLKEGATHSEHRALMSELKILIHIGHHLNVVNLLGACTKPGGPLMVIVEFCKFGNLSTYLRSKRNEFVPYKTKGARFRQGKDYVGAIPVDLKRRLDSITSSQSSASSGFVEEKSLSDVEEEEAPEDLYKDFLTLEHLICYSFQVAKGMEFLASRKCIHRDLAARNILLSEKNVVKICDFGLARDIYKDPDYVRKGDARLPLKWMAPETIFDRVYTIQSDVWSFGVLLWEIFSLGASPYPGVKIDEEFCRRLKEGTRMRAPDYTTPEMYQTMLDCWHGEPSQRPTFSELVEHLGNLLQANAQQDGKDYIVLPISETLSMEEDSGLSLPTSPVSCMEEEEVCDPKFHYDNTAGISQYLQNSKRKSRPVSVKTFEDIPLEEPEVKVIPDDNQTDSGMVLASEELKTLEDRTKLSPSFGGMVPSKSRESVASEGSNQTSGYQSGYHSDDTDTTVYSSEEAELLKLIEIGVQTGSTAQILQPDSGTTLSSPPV
Source text: as §1

[5] = molecular target: T2, ROCK-I(h) (Homo sapiens, UniProt Q13464); assay: biochemical; parameters: In vitro kinase panel profiling, per cent remaining kinase activity at 10 uM; settings: atp_concentration=70, read-out: % of control remaining
T2 construct: gene ROCK1
T2 sequence (Q13464 whole entry): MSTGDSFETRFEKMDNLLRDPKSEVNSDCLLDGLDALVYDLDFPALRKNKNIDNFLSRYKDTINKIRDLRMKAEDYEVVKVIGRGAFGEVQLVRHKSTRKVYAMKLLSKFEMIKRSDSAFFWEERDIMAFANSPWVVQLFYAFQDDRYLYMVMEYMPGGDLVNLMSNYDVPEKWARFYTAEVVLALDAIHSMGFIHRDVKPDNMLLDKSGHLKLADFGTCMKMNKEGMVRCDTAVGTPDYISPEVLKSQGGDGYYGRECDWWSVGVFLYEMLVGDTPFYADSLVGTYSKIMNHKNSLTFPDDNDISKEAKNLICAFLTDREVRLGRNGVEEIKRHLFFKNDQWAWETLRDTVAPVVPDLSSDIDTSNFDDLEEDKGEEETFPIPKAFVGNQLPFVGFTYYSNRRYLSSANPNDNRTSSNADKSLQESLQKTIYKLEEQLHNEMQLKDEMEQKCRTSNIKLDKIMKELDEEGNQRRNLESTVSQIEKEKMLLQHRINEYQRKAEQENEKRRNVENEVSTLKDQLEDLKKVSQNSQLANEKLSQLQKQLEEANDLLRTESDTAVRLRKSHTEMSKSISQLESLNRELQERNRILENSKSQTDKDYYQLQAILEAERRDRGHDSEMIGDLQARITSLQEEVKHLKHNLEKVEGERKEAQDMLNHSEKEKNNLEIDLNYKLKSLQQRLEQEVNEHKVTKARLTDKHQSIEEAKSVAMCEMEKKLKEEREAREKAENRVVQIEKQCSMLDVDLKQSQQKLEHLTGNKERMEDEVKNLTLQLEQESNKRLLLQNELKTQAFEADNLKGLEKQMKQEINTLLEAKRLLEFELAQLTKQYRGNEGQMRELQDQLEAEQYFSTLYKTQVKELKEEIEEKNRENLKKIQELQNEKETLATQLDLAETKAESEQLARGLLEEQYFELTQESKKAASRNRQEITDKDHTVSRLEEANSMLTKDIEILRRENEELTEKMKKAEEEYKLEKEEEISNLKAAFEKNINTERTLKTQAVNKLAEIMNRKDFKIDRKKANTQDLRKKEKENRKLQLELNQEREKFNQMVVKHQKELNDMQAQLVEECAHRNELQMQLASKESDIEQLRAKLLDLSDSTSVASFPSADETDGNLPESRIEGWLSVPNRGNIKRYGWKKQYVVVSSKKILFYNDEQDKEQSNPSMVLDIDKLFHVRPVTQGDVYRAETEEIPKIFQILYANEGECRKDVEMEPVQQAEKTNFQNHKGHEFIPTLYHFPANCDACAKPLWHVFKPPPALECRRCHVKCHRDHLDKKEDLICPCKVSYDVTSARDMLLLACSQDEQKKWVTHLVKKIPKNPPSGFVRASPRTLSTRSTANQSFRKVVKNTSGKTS
Source text: as §1

[6] = molecular target: T3, p70S6K(h) (Homo sapiens, UniProt P23443); assay: biochemical; parameters: In vitro kinase panel profiling, per cent remaining kinase activity at 10 uM; settings: atp_concentration=15, read-out: % of control remaining
T3 construct: gene RPS6KB1
Source text: as §1

[7] = molecular target: T4, MSK2(h) (Homo sapiens, UniProt O75676); assay: biochemical; parameters: In vitro kinase panel profiling, per cent remaining kinase activity at 10 uM; settings: atp_concentration=45, read-out: % of control remaining
T4 construct: gene RPS6KA4
Source text: as §1

[8] = molecular target: Plk3(h) (Homo sapiens, UniProt Q9H4B4); assay: biochemical; parameters: In vitro kinase panel profiling, per cent remaining kinase activity at 10 uM; settings: atp_concentration=70, read-out: % of control remaining
Chain of Plk3(h) (Q9H4B4 whole entry): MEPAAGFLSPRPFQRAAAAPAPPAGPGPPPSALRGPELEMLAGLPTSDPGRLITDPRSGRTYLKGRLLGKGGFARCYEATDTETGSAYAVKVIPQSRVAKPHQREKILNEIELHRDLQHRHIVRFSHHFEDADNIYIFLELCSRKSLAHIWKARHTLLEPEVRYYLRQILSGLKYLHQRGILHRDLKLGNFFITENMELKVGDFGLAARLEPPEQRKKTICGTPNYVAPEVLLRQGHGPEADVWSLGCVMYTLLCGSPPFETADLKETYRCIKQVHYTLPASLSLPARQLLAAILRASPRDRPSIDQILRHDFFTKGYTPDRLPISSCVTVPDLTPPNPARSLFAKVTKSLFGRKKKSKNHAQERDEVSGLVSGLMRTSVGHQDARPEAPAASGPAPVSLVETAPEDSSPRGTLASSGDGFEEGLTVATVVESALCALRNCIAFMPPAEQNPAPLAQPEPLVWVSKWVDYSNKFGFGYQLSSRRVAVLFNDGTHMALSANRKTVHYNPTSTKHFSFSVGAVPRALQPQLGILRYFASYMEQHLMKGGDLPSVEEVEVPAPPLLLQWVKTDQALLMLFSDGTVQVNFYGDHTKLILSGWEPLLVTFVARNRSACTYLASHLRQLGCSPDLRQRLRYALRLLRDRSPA
Source text: as §1

[9] = molecular target: T5, PRAK(h) (Homo sapiens, UniProt Q8IW41); assay: biochemical; parameters: In vitro kinase panel profiling, per cent remaining kinase activity at 10 uM; settings: atp_concentration=15, read-out: % of control remaining
T5 construct: gene MAPKAPK5
T5 sequence (Q8IW41 1-473): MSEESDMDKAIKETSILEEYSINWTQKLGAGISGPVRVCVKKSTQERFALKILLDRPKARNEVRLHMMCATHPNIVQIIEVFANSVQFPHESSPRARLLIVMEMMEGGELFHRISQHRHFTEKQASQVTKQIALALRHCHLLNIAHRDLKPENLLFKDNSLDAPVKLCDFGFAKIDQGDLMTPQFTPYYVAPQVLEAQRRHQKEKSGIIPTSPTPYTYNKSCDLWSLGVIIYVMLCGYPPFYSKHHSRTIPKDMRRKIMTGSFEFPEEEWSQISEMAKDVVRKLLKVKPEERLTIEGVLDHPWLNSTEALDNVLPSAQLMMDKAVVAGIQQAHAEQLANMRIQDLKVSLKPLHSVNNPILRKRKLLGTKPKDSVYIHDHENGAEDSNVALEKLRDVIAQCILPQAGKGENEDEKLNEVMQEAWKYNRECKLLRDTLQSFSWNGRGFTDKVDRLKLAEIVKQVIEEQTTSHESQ
Source text: as §1

[10] = molecular target: CDK9/cyclin T1(h) (Homo sapiens, UniProt P50750); assay: biochemical; parameters: In vitro kinase panel profiling, per cent remaining kinase activity at 10 uM; settings: atp_concentration=45, read-out: % of control remaining
Source text: as §1

[11] = molecular target: CDK7/cyclinH/MAT1(h) (Homo sapiens, UniProt P50613); assay: biochemical; parameters: In vitro kinase panel profiling, per cent remaining kinase activity at 10 uM; settings: atp_concentration=90, read-out: % of control remaining
Chain of CDK7/cyclinH/MAT1(h) (P50613 whole entry): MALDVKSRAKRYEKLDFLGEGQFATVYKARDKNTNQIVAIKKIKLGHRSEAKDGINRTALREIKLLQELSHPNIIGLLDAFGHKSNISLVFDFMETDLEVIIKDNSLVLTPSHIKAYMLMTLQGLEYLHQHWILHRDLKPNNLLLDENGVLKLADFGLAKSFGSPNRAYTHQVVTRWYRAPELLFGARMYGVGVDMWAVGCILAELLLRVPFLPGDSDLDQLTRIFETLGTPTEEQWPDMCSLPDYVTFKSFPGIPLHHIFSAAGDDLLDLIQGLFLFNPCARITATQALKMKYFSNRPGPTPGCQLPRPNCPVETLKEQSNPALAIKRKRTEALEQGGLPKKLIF
Chain of CDK7/cyclinH/MAT1(h) (P51946 whole entry partner): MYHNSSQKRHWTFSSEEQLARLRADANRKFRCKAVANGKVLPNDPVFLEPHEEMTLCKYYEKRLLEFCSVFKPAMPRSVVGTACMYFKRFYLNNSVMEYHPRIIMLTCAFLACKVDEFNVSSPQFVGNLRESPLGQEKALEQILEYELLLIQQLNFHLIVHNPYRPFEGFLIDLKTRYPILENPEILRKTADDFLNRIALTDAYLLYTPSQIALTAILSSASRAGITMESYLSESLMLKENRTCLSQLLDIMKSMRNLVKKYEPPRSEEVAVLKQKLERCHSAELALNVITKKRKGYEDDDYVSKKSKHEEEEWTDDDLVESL
Chain of CDK7/cyclinH/MAT1(h) (P51948 whole entry partner): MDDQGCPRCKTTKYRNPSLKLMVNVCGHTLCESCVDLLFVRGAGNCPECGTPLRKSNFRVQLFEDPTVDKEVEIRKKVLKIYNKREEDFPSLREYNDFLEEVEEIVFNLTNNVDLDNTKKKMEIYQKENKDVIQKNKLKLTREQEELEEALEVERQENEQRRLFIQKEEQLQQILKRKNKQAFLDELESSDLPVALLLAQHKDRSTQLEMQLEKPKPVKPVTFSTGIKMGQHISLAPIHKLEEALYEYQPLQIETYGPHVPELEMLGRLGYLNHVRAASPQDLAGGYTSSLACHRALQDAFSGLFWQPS
Source text: as §1

[12] = molecular target: T6, IKKα(h) (Homo sapiens, UniProt O15111); assay: biochemical; parameters: In vitro kinase panel profiling, per cent remaining kinase activity at 10 uM; settings: atp_concentration=10, read-out: % of control remaining
T6 construct: gene CHUK
T6 sequence (O15111 1-745): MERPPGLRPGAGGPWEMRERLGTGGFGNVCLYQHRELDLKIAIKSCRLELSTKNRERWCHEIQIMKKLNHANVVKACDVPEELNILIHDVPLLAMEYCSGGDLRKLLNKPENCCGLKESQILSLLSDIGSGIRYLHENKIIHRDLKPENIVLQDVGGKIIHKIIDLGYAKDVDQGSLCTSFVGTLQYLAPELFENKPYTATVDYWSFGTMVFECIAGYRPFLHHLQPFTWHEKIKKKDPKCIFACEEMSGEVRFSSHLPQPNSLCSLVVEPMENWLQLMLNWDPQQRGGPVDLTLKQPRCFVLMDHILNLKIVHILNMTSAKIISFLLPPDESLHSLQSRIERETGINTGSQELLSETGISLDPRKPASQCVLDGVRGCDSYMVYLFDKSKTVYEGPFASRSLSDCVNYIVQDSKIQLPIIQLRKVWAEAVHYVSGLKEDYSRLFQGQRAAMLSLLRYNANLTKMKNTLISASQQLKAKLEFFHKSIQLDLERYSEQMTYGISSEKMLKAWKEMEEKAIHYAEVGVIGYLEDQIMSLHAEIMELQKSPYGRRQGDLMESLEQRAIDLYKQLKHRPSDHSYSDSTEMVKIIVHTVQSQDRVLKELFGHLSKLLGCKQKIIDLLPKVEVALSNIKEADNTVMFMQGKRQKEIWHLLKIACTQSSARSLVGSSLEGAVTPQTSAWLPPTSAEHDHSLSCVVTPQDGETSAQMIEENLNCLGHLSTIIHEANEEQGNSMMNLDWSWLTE
Source text: as §1

[13] = In vitro kinetic solubility; settings: In vitro kinetic solubility, ph 7.4
[14] = LogD; settings: pH 7.4; In vitro LogD
[15] = MDR1-MDCKII, with inhibitor Cyclosporin A
[16] = MDR1-MDCKII, with inhibitor Verapamil

CC(C)[C@@H](Nc1ncnc2[nH]c(-c3cnn(C)c3C#N)cc12)c1ccc2c(n1)OCCO2 [ASAP-0010716]
papp_a_to_b_mean ([1]; A to B, mean): 14.6 ×10⁻⁶ cm/s | papp_a_to_b_mean ([1]; A to B, no inhibitor): 1.05 ×10⁻⁶ cm/s and 1.02 ×10⁻⁶ cm/s and 0.676 ×10⁻⁶ cm/s | papp_b_to_a_mean ([1]; no inhibitor): 6.5 ×10⁻⁶ cm/s and 6.1 ×10⁻⁶ cm/s and 8.26 ×10⁻⁶ cm/s | perc_recovery_a_to_b_mean ([1]; mean): 85.7% | perc_recovery_a_to_b_mean ([1]; no inhibitor): 67.5% and 74.0% and 87.7% | perc_recovery_b_to_a_mean ([1]; no inhibitor): 70.0% and 84.4% and 95.1% | papp_a_to_b_inhibitor_mean ([1]; MDR1-MDCKII, A to B, with inhibitor Cyclosporin A): 4.51 ×10⁻⁶ cm/s | perc_recovery_a_to_b_inhibitor_mean [1, 15]: 115.0% and 75.2% | perc_recovery_a_to_b_inhibitor_mean [1, 16]: 107.0% | perc_recovery_b_to_a_inhibitor_mean [1, 15]: 106.0% and 78.2% | perc_recovery_b_to_a_inhibitor_mean [1, 16]: 88.6% | remaining activity at 10 µM ([2]; batch_name=ASAP-0010716-002): 123% | remaining activity at 10 µM ([3]; batch_name=ASAP-0010716-002): 99% | remaining activity at 10 µM ([4]; batch_name=ASAP-0010716-002): 86% | remaining activity at 10 µM ([5]; batch_name=ASAP-0010716-002): 107% | remaining activity at 10 µM ([6]; batch_name=ASAP-0010716-002): 106% | remaining activity at 10 µM ([7]; batch_name=ASAP-0010716-002): 122% | remaining activity at 10 µM ([8]; batch_name=ASAP-0010716-002): 89% | remaining activity at 10 µM ([9]; batch_name=ASAP-0010716-002): 89% | remaining activity at 10 µM ([10]; batch_name=ASAP-0010716-002): 84% | remaining activity at 10 µM ([11]; batch_name=ASAP-0010716-002): 102% | remaining activity at 10 µM ([12]; batch_name=ASAP-0010716-002): 104% | solubility_mean [13]: 50 µM (≈ 21.5 µg/mL) | logd [14]: 3.9

CNCc1cc(-c2cc3c(N[C@@H](c4ccc5c(c4)S(=O)(=O)CCC5)C(C)C)ncnc3[nH]2)co1 [ASAP-0011176]
papp_a_to_b_mean ([1]; A to B, mean): 2.61 ×10⁻⁶ cm/s | papp_a_to_b_mean ([1]; A to B, no inhibitor): 0.0775 ×10⁻⁶ cm/s and 0.0947 ×10⁻⁶ cm/s | papp_b_to_a_mean ([1]; no inhibitor): 0.15 ×10⁻⁶ cm/s and 0.137 ×10⁻⁶ cm/s | perc_recovery_a_to_b_mean ([1]; mean): 78.9% | perc_recovery_a_to_b_mean ([1]; no inhibitor): 64.8% and 63.4% | perc_recovery_b_to_a_mean ([1]; no inhibitor): 60.4% and 68.7% | perc_recovery_a_to_b_inhibitor_mean [1, 15]: 78.6% | perc_recovery_a_to_b_inhibitor_mean [1, 16]: 67.3% | perc_recovery_b_to_a_inhibitor_mean [1, 15]: 83.0% | perc_recovery_b_to_a_inhibitor_mean [1, 16]: 62.0% | remaining activity at 10 µM ([2]; batch_name=ASAP-0011176-002): 114% | remaining activity at 10 µM ([3]; batch_name=ASAP-0011176-002): 93% | remaining activity at 10 µM ([4]; batch_name=ASAP-0011176-002): 88% | remaining activity at 10 µM ([5]; batch_name=ASAP-0011176-002): 102% | remaining activity at 10 µM ([6]; batch_name=ASAP-0011176-002): 110% | remaining activity at 10 µM ([7]; batch_name=ASAP-0011176-002): 91% | remaining activity at 10 µM ([8]; batch_name=ASAP-0011176-002): 124% | remaining activity at 10 µM ([9]; batch_name=ASAP-0011176-002): 122% | remaining activity at 10 µM ([10]; batch_name=ASAP-0011176-002): 40% | remaining activity at 10 µM ([11]; batch_name=ASAP-0011176-002): 100% | remaining activity at 10 µM ([12]; batch_name=ASAP-0011176-002): 79% | solubility_mean [13]: 345 µM (≈ 165 µg/mL) | logd [14]: 2.2
